Measurements published in patent publication US20240216357A1 (SICHUAN HUIYU PHARMACEUTICAL CO., LTD., priority 2021, published 2024).
Structures can show the parent of a compound that is named as a salt. Where two headings read alike, the source gives them in different places.

What was measured:
[1] = biological target: LSD1 (Homo sapiens (Human), UniProt O60341); assay: LSD1 enzyme activity detection (HTRF); assay type: biochemical; conditions: read-out: Inhibition of enzymatic activity of LSD1 IC50
[2] = tested on: NCI-H1417 cells; assay: In vitro cell proliferation detection (CellTiter-Glo, 7 days); assay type: cell-based; conditions: read-out: NCI-H1417 proliferation inhibition IC50
[3] = Homo sapiens, 168 h, NCI-H1417 cells, 7 days, CellTiter-Glo

Structure (SMILES)	IC50 ([1]; HTRF, H3K4me1 substrate) [nM]	IC50 [2, 3] [nM]	IC50 ([2]; NCI-H1417 cells, 7 days, CellTiter-Glo) [nM]	IC50 [1] [nM]	IC50 [2] [nM]
O=C(c1cc(CN[C@@H]2C[C@H]2c2ccc(F)cc2)nc(-c2ccc(-n3ccnn3)cc2)n1)N1CCOCC1 [Example 242]	49.6	2.83			
O=C(c1cc(CN[C@@H]2C[C@H]2c2ccc(F)cc2)nc(-c2ccc(N3CCOCC3)cc2)n1)N1CCC(F)(F)CC1 [Example 244, (4,4-difluoropiperidin-1-yl)(6-(((1R,2S)-2-(4-f1uorophenyl)cyclopropyl)amino)methyl)-2-(4-morpholinophenyl) pyrimidin-4-yl)methanone hydrochloride]	116	5.07			
O=C(c1cc(CN[C@@H]2C[C@H]2c2ccc(F)cc2)nc(-c2ccc(N3CCOCC3)cc2)n1)N1CCOCC1 [Example 245, (6-((1R,2S)-2-(4-fluorophenyl)cyclopropyl)amino)methyl)-2-(4-morpholinophenyl) pyrimidin-4-yl) (morpholino)methanone hydrochloride]	39.1	1.98			
COc1ccc(-c2nc(CN[C@@H]3C[C@H]3c3ccc(F)cc3)cc(C(=O)N3CCC(F)(F)CC3)n2)cc1O [Example 247]	65.8	6.51			
O=C(c1cc(CN[C@@H]2C[C@H]2c2ccc(F)cc2)nc(-c2ccc(-n3ccnn3)cc2)n1)N1CCC(F)(F)CC1 [Example 248, (2-(4-(1H-1,2,3-triazol-1-yl)phenyl)-6-((((1R,2S)-2-(4-fluorophenyl)cyclo-propyl)amino)methyl)pyrimidin-4-yl)(4,4-difluoropiperidin-1-yl) methanone]	140	2.98			
O=C(NC1CCOCC1)c1cc(CN[C@@H]2C[C@H]2c2ccc(F)cc2)nc(-c2ccc(-n3ccnn3)cc2)n1 [Example 249]	15.8	1.11			
COc1ccc(C2CC2NCc2c(OC)cc(N3CCC(N)CC3)nc2-c2ccc(C#N)c(F)c2)cc1F (centres unmarked) [Example 252]	73.7		> 1000		
CS(=O)(=O)N1CCN(C(=O)c2cc(CCN[C@@H]3C[C@H]3c3ccc(F)cc3)nc(-c3ccc(-n4cccn4)cc3)c2)CC1 [Example 255, (2-(4-(1H-pyrazol-1-yl)phenyl)-6-(2-(((1R,2S)-2-(4-fluorophenyl)cyclopropyl)amino)ethyl)pyridin-4-yl) (4-(methylsulfonyl)piperazin-1-yl)methanone]	172	29.1			
CS(=O)(=O)N1CCN(C(=O)c2cc(CCN[C@@H]3C[C@H]3c3ccc(F)cc3)cc(-c3ccc(-n4cccn4)cc3)n2)CC1 [Example 256, (6-(4-(1H-pyrazol-1-yl)phenyl)-4-(2-(((1R,2S)-2-(4-fluorophenyl)cyclopropyl)amino)ethyl)pyridin-2-yl) (4-(methylsulfonyl)piperazin-1-yl)methanone]	71.3	10.8			
N#Cc1ccc(-c2nc(CCCN[C@@H]3C[C@H]3c3ccc(F)cc3)cc(C(=O)N3CCC(F)(F)CC3)n2)cc1 [Example 258, 4-(4-(4,4-difluoropiperidine-1-carbonyl)-6-(3-(((1R,2S)-2-(4-fluorophenyl)cyclopropyl)amino)propyl)pyrimidin-2-yl)benzonitrile hydrochloride]	232	89.7			
CS(=O)(=O)N1CCN(c2cc(CN[C@@H]3C[C@H]3c3ccc(F)cc3)nc(-c3ccc(C#N)cc3)n2)CC1 [Example 264, 4-(4-((((1R,2S)-2-(4-fluoro-phenyl)cyclopropyl)amino)methyl)-6-(4-(methylsulfonyl)piperazin-1-yl)pyrimidin-2-yl)benzonitrile]	87.6	27.4			
COc1ccc(-c2c(OC)cc(N3CCC(N)CC3)cc2-c2ccc(C#N)c(F)c2)cc1O [Example 267, 5′-(4-aminopiperidin-1-yl)-3-fluoro-3″-hydroxy-3′,4″-dimethoxy-[1,1′:2′,1″-terphenyl]-4-nitrile trifluoroacetate]	1 ± 0.4	3.87			
Cc1ccc(-c2c(-c3ccc(C#N)c(F)c3)nc(N3CCC(N)CC3)c3ccoc23)cc1O [Example 268, 4-(4-(4-aminopiperidin-1-yl)-7-(3-hydroxy-4-methylphenyl)furan[3,2-c]pyridin-6-yl)-2-fluorobe nzonitrile hydrochloride]				1.5 ± 0.5	0.378
COc1ccc(-c2c(-c3ccc(C#N)c(F)c3)nc(N3CCC(N)CC3)c3nc[nH]c23)cc1F [Example 270, 4-(4-(4-aminopiperidin-1-yl)-7-(3-fluoro-4-methoxyphenyl)-1H-imidazolo[4,5-c]pyridin-6-yl)-2-fluorobenzonitrile hydrochloride]	10.1	8.64			
COc1ccc(-c2c(-c3ccc(C#N)c(F)c3)nc(N3CCC(N)CC3)c3nc[nH]c23)cc1O [Example 271, 4-(4-(4-aminopiperidin-1-yl)-7-(3-hydroxy-4-methoxyphenyl)-1H-imidazolo[4,5-c]pyridin-6-yl)-2-fluorobenzonitrile hydrochloride]	0.5 ± 0.4	9.77			
Cc1noc2cc(-c3c(-c4ccc(C#N)c(F)c4)nc(N4CCC(N)CC4)c4nc[nH]c34)c(F)cc12 [Example 272, 4-(4-(4-aminopiperidin-1-yl)-7-(5-fluoro-3-methylbenzo[d]isoxazol-6-yl)-1H-imidazolo[4,5-c]pyridin-6-yl)-2-fluorobenzonitrile]	1.8 ± 0.8	11			
Cc1noc2cc(-c3c(C#N)cc(N4CCC(N)CC4)nc3-c3ccc(C#N)c(F)c3)c(F)cc12 [Example 275, 6-(4-aminopiperidin-1-yl)-2-(4-cyano-3-fluorophenyl)-3-(5-fluoro-3-methylbenzo[d]isoxazol-6-yl)isonionitrile]	0.94	3.6			
COc1ccc(-c2c(C)nc(N3CCC(N)CC3)c(C#N)c2-c2ccc(C#N)c(F)c2)cc1O [Example 276, 2-(4-aminopiperidin-1-yl)-4-(4-cyano-3-fluorophenyl)-5-(3-hydroxy-4-methoxyphenyl)-6-meth ylpyridine-3-carbonitrile]	0.1 ± 0.01	1.1 ± 0.7			
Cc1nc(N2CCC(N)CC2)c(C#N)c(-c2ccc(C#N)c(F)c2)c1-c1cc2onc(C)c2cc1F [Example 277, 2-(4-aminopiperidin-1-yl)-4-(4-cyano-3-fluorophenyl)-5-(5-fluoro-3-methylbenzo[d]isoxazol-6-yl)-6-methylnicotinonitrile]	0.39	1.33			
COc1ccc(-c2c(-c3ccc(C#N)c(F)c3)nc(N3CCC(N)CC3)c3ncoc23)cc1O [Example 278, 4-(4-(4-aminopiperidin-1-yl)-7-(3-hydroxy-4-methoxyphenyl)oxazolo[4,5-c]pyridin-6-yl)-2-fluo robenzonitrile]	0.3 ± 0.1	0.648			
Cc1noc2cc(-c3c(-c4ccc(C#N)c(F)c4)nc(N4CCC(N)CC4)c4ncoc34)c(F)cc12 [Example 279, 4-(4-(4-aminopiperidin-1-yl)-7-(5-fluoro-3-methylbenzo[d]isoxazol-6-yl)oxazolo[4,5-c]pyridin-6-yl)-2-fluorobenzonitrile]	2.27	6.61			
Cc1noc2cc(-c3c(-c4ccc(C#N)c(F)c4)nc(N4CCC(N)CC4)c4c3cnn4C)c(F)cc12 [Example 286, 4-(7-(4-aminopiperidin-1-yl)-4-(5-fluoro-3-methylbenzo[d]isoxazol-6-yl)-1-methyl-1H-pyrazolo [3,4-c]pyridin-5-yl)-2-fluorobenzonitrile]	3.5	4.58			
